Test results published in patent publication US8569489B2 (A.B. Intelpharm Limited, priority 2007, dated 2013).
Counter-ions that a name gives are not always drawn. Like-named read-outs stand apart in the source and are kept apart here.

Columns and labels:
[1] = tested on: isolated guinea pig ileum (spasmogenic effect of histamine); test: Isolated guinea pig ileum, suppression of the spasmogenic effect of histamine; format: cell-based; settings: histamine spasm, read-out: Antihistaminic activity, isolated ileum of guinea pig, IC50
Excerpt: Study of the antihistaminic activity of the compounds on which a claim is made was done using known methodologies (Rukovodstvo po eksperimental'nomu izucheniyu novykh farmakologicheskikh veshchestv [Manual on experimental study of new pharmacological substances], Moscow, 2005, p. 489) on isolated guinea pig ileum (suppression of the spasmogenic effect of histamine) and on anesthetized guinea pigs (antagonism in relation to the bronchoconstrictor effect of histamine). In tests on intact animals, substances were administered intravenously (5 minutes before the administration of histamine) and orally (2 hours before the beginning of the study).

[2] = tested on: H1-histamine receptors (bronchoconstrictor effect of histamine); test: Anesthetized guinea pigs, antagonism of the bronchoconstrictor effect of histamine (histamine bronchospasm model); format: in vivo, guinea pig; settings: for ED50: Cavia porcellus; for Duration of effective blockade of H1-histamine receptors: histamine bronchospasm model, oral dose of 3 mg/kg
Procedure: In tests on intact animals, substances were administered intravenously (5 minutes before the administration of histamine) and orally (2 hours before the beginning of the study).

[3] = tested on: histamine-induced itch; test: Itching induced by instillation of histamine solution into the eye of conscious guinea pigs; format: in vivo, guinea pig; settings: 3 mg/kg administered orally
Excerpt: (Rukovodstvo po […] [Manual on experimental study of new pharmacological substances], Moscow, 2005, p. 511)

[4] = tested on: passive cutaneous anaphylaxis; test: Passive cutaneous anaphylaxis model in rats; format: in vivo, rat
Excerpt: (Rukovodstvo po eksperimental'nomu izucheniyu novykh farmakologicheskikh veshchestv [Manual on experimental study of new pharmacological substances], Moscow, 2005, p. 511)

[5] = pH of aqueous solution of salts; format: physicochemical
[6] = tested on: mice; test: Acute toxicity, mice perorally
[7] = tested on: mice; settings: mice perorally; literature value (footnotes * and **); cited from earlier work
[8] = Thermal stability
[9] = po, anesthetized guinea pigs, orally 2 hours before the study, read-out: Antihistaminic activity, guinea pigs in vivo, peroral administration, ED50
[10] = anesthetized guinea pigs, intravenous, 5 minutes before histamine, read-out: Antihistaminic activity, guinea pigs in vivo, intravenous administration, ED50

Compound	ED50 [2, 9] [mg/kg]	ED50 [2, 10] [mg/kg]	Duration of effective blockade of H1-histamine receptors [2] [h]	Duration of the protective effect in the histamine-induced itch model [3]	pH of aqueous solution [5]	other results
O=C(O)COCCN1CCN(C(c2ccccc2)c2ccc(Cl)cc2)CC1 (stereo not shown) [Cetirizine, reference compound]	0.2	0.07	48	diminishes significantly after 48 hours and disappears altogether after 72 hours		IC50 ([1]; Cavia porcellus): 127 nM; Antiallergic effect, passive cutaneous anaphylactic model ([4]; dose 3 mg/kg): moderate and similar antiallergic effect
Cn1c(=O)[nH]c(=O)c2c1ncn2CCCCN1CCN(C(c2ccccc2)c2ccccc2)CC1 [Dihydrochloride, 7-/4-(4-benzhydrylpiperazinyl-1)butyl/-3-methylxanthine]					2.45	
Cn1c(=O)[nH]c(=O)c2c1ncn2CCCCN1CCN(C(c2ccccc2)c2ccccc2)CC1 [II-g, 3-methyl-7-[4-(benzhydryl-4-piperazinyl-1)butyl]xanthine]			72	remains at a stable level for 2 days and decreases only after 72 hours		IC50 [1]: 18 nM; Antihistaminic activity, guinea pigs in vivo, intravenous administration, ED50 ([2]; anesthetized guinea pigs, intravenous, 5 minutes before histamine): 0.02 mg/kg; Antihistaminic activity, guinea pigs in vivo, peroral administration, ED50 ([2]; anesthetized guinea pigs, orally 2 hours before the study): 0.02 mg/kg; Antiallergic effect, passive cutaneous anaphylactic model ([4]; dose 1 mg/kg): moderate and similar antiallergic effect; Acute toxicity, LD50 [6]: 1300.0 mg/kg
CN1CCCC(n2nc(Cc3ccc(Cl)cc3)c3ccccc3c2=O)CC1 (stereo not shown) [Azelastine, reference compound]	0.015	0.05	48	diminishes significantly after 48 hours and disappears altogether after 72 hours		Acute toxicity, LD50 [7]: 124-139** mg/kg
Cn1c(=O)[nH]c(=O)c2c1ncn2CCCCN1CCN(C(c2ccccc2)c2ccccc2)CC1.O=C(O)CCC(=O)O [Succinate, 7-/4-(4-benzhydrylpiperazinyl-1)butyl/-3-methylxanthine succinate]					4.85	Thermal stability [8]: good thermal stability
Cn1c(=O)[nH]c(=O)c2c1ncn2CCCCN1CCN(C(c2ccccc2)c2ccccc2)CC1 [Oxalate, 7-/4-(4-benzhydrylpiperazinyl-1)butyl/-3-methylxanthine]					3.44	
